The values below come from patent US11638401B2, “Methods and compositions for increasing tolerance to abiotic stress in plants” (priority 2018, dated 2023).

Assay [1] relates to Soybean. Nature of the assay: Soybean Trial 2018, field trial. It counts as in vivo. To be noted: Soybean 2018, Elm City N.C.; Photon 8 g ai/A, Aminoguanidine 2 g ai/A; control 22.3; LSD 0.05 3.8. The source says:
(§1) In the table below, the treatment labeled “Photon” represents a mixture of azelaic, sebacic, undecanedioic, acids. It is predominantly azelaic acid, and equal parts of the remaining two major constituents. Abbreviations: ai=active ingredient, A=acre, ha=hectare, lbs=pounds, MT=metric ton • Soybean Trial 2018 • Elm City N.C. • Randomized complete block with 5 replicates

Assay [2] deals with Soybean. Nature of the assay: Soybean - Two Year Summary, field trials. It counts as in vivo. The note with it: Photon 8 g ai/A, Aminoguanidine 2 g ai/A, control 38.9, LSD 0.01 3.9.
Text: as §1

As for `N=C(N)NN` [Aminoguanidine, aminoguanidine], the “Yield (bu/A)” value in the assay with Soybean [1] is reported as 24.3 bu/A; with Soybean [2], 42.5 bu/A.
